Measured values reported in ChEMBL document CHEMBL1201862, “PubChem BioAssay data set” (2004).
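Growth conditions: 96-well plates. Treatment: test compound, 48 hours, 5 concentrations. Analysis: linear interpolation between bracketing concentrations; unreached endpoints set to highest concentration. At the GI50, growth is halved.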 The source made the active and inactive calls. Cut-off read from the data, not from the text of the source: active = GI50 up to about 1.1 µM and inactive = higher.

How the values were obtained:
Assay in all cases: NCI tumour cell line growth inhibition, 48 h
786-0 = system: 786-0
EKVX = system: EKVX
HOP-62 = system: HOP-62
M14 = system: M14
NCI-H460 = system: NCI-H460
OVCAR-3 = system: OVCAR-3
OVCAR-4 = system: OVCAR-4
OVCAR-5 = system: OVCAR-5
RPMI-8226 = system: RPMI-8226
SF-268 = system: SF-268
SNB-19 = system: SNB-19
SNB-75 = system: SNB-75
UO-31 = system: UO-31
HCC 2998 = system: HCC 2998
IGROV-1 = system: IGROV-1
SF-539 = system: SF-539

Measured: GI50

COc1ccc(-c2ccc(CC(=O)O)cc2)cc1OC
inactive: 786-0 > 100 µM | EKVX > 100 µM | HOP-62 95.5 µM | M14 > 100 µM | NCI-H460 > 100 µM | OVCAR-3 > 100 µM | OVCAR-4 > 100 µM | OVCAR-5 > 100 µM | RPMI-8226 > 100 µM | SF-268 > 100 µM | SNB-19 > 100 µM | SNB-75 97.5 µM | UO-31 > 100 µM

CC(C)[C@@H](C)CC[C@@H](C)C1CC=C2[C@@H]3CCC4C[C@@H](O[Si](C)(C)C(C)(C)C)CC[C@]4(C)C3CC[C@@]21C (some centres undefined)
inactive: 786-0 > 100 µM | EKVX > 100 µM | HCC 2998 > 100 µM | HOP-62 > 100 µM | IGROV-1 > 100 µM | M14 > 100 µM | NCI-H460 > 100 µM | OVCAR-3 > 100 µM | OVCAR-4 > 100 µM | RPMI-8226 > 100 µM | SF-268 > 100 µM | SF-539 > 100 µM | SNB-19 > 100 µM | SNB-75 > 100 µM | UO-31 > 100 µM

CCCCCCCCCCCCCCCCCCC1=C(O)C(=O)C=C(OC)C1=O
inactive: 786-0 34.3 µM | EKVX 41.7 µM | HCC 2998 38.3 µM | HOP-62 34.3 µM | IGROV-1 38.8 µM | M14 53.2 µM | NCI-H460 88.7 µM | OVCAR-3 41.8 µM | OVCAR-4 46.7 µM | OVCAR-5 39.5 µM | SF-268 38.5 µM | SF-539 45.1 µM | SNB-19 61.4 µM | SNB-75 30.6 µM | UO-31 85.5 µM

CCCCCCCC/C=C/CCCCCCCC(=O)N(O)C1CC(n2cc(C)c(=O)[nH]c2=O)OC1CO (centres undefined)
inactive: 786-0 4.46 µM | HCC 2998 10.6 µM | HOP-62 6.25 µM | IGROV-1 5.38 µM | M14 3.55 µM | NCI-H460 3.85 µM | OVCAR-3 7.33 µM | OVCAR-4 11.2 µM | OVCAR-5 10.4 µM | RPMI-8226 9.68 µM | SF-268 11 µM | SF-539 11.6 µM | SNB-19 12.9 µM | SNB-75 12.1 µM | UO-31 3.96 µM

COc1ccc(C(=O)OCC2OC(n3cnc4c(=S)nc[nH]c43)C(OC(=O)c3ccc(OC)cc3)C2OC(=O)c2ccc(OC)cc2)cc1 (centres undefined)
inactive: 786-0 15.3 µM | HCC 2998 9.35 µM | HOP-62 3.18 µM | IGROV-1 57 µM | M14 3.36 µM | NCI-H460 43.1 µM | OVCAR-3 5.06 µM | OVCAR-4 7.82 µM | OVCAR-5 23.1 µM | RPMI-8226 4.36 µM | SF-268 30.1 µM | SF-539 20.5 µM | SNB-19 > 100 µM | SNB-75 7.52 µM | UO-31 55.1 µM

CC(C)c1cccc2sc(NC(=O)C(=O)C(C#N)c3cccc4ccccc34)nc12 (centres undefined)
inactive: 786-0 > 100 µM | EKVX 10.9 µM | HCC 2998 65.8 µM | HOP-62 99.8 µM | IGROV-1 77.6 µM | M14 > 100 µM | NCI-H460 > 100 µM | OVCAR-3 41.7 µM | OVCAR-4 29.8 µM | SF-268 > 100 µM | SF-539 20.7 µM | SNB-19 > 100 µM | SNB-75 23.4 µM | UO-31 31.4 µM

CCCCCCCC(=O)OC[C@@H](C[As](=O)(O)O)OC(=O)CCCCCCC
inactive: 786-0 12.1 µM | EKVX 26.5 µM | HCC 2998 15.7 µM | HOP-62 18.7 µM | IGROV-1 5.21 µM | M14 14.9 µM | OVCAR-4 11.9 µM | RPMI-8226 10.3 µM | SF-268 5.85 µM | SF-539 10.5 µM | SNB-19 14.2 µM | SNB-75 11.5 µM | UO-31 2.59 µM

O=C(O)CSc1ccc2nc3ccccc3c(O)c2c1
inactive: 786-0 > 100 µM | HCC 2998 > 100 µM | HOP-62 > 100 µM | IGROV-1 > 100 µM | M14 > 100 µM | NCI-H460 > 100 µM | OVCAR-3 > 100 µM | OVCAR-4 > 100 µM | OVCAR-5 > 100 µM | RPMI-8226 > 100 µM | SF-268 > 100 µM | SNB-19 > 100 µM | UO-31 > 100 µM

CCC1=C(C(C)=O)[C@@H]2CCCCC[C@@H](C(=O)OC)C2C1=O (some centres undefined)
inactive: 786-0 > 100 µM | EKVX > 100 µM | HCC 2998 > 100 µM | HOP-62 > 100 µM | IGROV-1 > 100 µM | M14 > 100 µM | NCI-H460 > 100 µM | OVCAR-4 > 100 µM | OVCAR-5 > 100 µM | RPMI-8226 > 100 µM | SF-268 > 100 µM | SF-539 > 100 µM | SNB-19 > 100 µM | SNB-75 > 100 µM | UO-31 > 100 µM

OCC12C=CC(C1)c1ccccc12 (centres undefined)
inactive: 786-0 > 100 µM | HCC 2998 > 100 µM | HOP-62 > 100 µM | IGROV-1 > 100 µM | M14 > 100 µM | NCI-H460 > 100 µM | OVCAR-3 > 100 µM | OVCAR-4 > 100 µM | OVCAR-5 > 100 µM | RPMI-8226 > 100 µM | SF-268 > 100 µM | SNB-19 > 100 µM | UO-31 > 100 µM

O=C1c2ccccc2C(=O)C1(O)c1c[nH]c2ccccc12
inactive: 786-0 > 100 µM | EKVX > 100 µM | HOP-62 > 100 µM | IGROV-1 > 100 µM | M14 > 100 µM | NCI-H460 > 100 µM | OVCAR-3 > 100 µM | OVCAR-4 > 100 µM | OVCAR-5 > 100 µM | RPMI-8226 > 100 µM | SF-268 > 100 µM | SF-539 > 100 µM | SNB-19 > 100 µM | SNB-75 > 100 µM | UO-31 > 100 µM

Cc1ccc(SC(CCC(Sc2ccc(C)cc2)Sc2ccc(C)cc2)Sc2ccc(C)cc2)cc1
inactive: 786-0 > 100 µM | EKVX > 100 µM | HOP-62 > 100 µM | IGROV-1 > 100 µM | M14 > 100 µM | NCI-H460 > 100 µM | OVCAR-3 > 100 µM | OVCAR-4 > 100 µM | RPMI-8226 > 100 µM | SF-268 > 100 µM | SF-539 > 100 µM | SNB-19 > 100 µM | SNB-75 > 100 µM | UO-31 > 100 µM

N#CC(Nc1cccc(C(F)(F)F)c1)c1ccccc1C(F)(F)F (centres undefined)
inactive: EKVX 15.4 µM | HCC 2998 7.78 µM | HOP-62 3.52 µM | IGROV-1 22.7 µM | M14 7.29 µM | NCI-H460 15.5 µM | OVCAR-3 6.52 µM | OVCAR-4 5.58 µM | OVCAR-5 14.8 µM | SF-268 17.2 µM | SF-539 18.4 µM | SNB-19 17.3 µM | SNB-75 18.3 µM | UO-31 17.9 µM

CCCNC(=O)Nc1c([N+](=O)[O-])cc(C(F)(F)F)cc1[N+](=O)[O-]
inactive: 786-0 > 100 µM | EKVX > 100 µM | HOP-62 > 100 µM | IGROV-1 > 100 µM | M14 86.3 µM | NCI-H460 42.1 µM | OVCAR-3 22.3 µM | OVCAR-4 20.3 µM | OVCAR-5 > 100 µM | RPMI-8226 83.9 µM | SF-268 > 100 µM | SF-539 71.3 µM | SNB-19 > 100 µM | SNB-75 34 µM | UO-31 > 100 µM
